Here are results for twelve compounds from patent US20250179103A1, “6-OXODECAHYDROPYRROLO[1,2-A][1,5]DIAZOCINE AND 6-OXODECAHYDRO-4H-PYRROLO[2,1-D][1,5]THIAZOCINE DERIVATIVES AS STAT3 AND STAT6 MODULATORS FOR THE TREATMENT OF CANCER AND INFLAMMATORY CONDITIONS” (Recludix Pharma, Inc., priority 2022, published 2025).

Experiment [1] deals with pY641-STAT6 in Peripheral Blood Mononuclear Cells (PBMC). Nature of the experiment: MSD-pSTAT-PBMC Assay (pSTAT6, IL-4 stimulated). The format is cell-based, Human. Conditions: Homo sapiens, compound 3 hrs, then 1 ng/mL IL-4 for 10 min. An excerpt:
Cryopreserved Peripheral Blood Mononuclear Cells (PBMC) are from AllCells. Recombinant Human IL-4 and IL-6 are from Peprotech. Mouse monoclonal anti-STAT3 antibody, rabbit monoclonal anti-pY705-STAT3 antibody, rabbit monoclonal Anti-pY641-STAT6 antibody, and lysis buffer are from Cell Signaling Technology (CST). Mouse monoclonal anti-STAT6 antibody is from BioLegend. Assay plates, blocker, and anti-rabbit secondary antibody are from Meso Scale Discovery (MSD).
Cryopreserved PBMCs were thawed out and allowed to recover overnight in IMDM+10% heat-inactivated FBS prior to plating 50,000 (STAT3) or 25,000 (STAT6) cells per well in 96-well U-bottom tissue culture plates. Cells were treated with compound for 3 hrs, then stimulated with 10 ng/mL IL-6 (STAT3) or 1 ng/mL IL-4 (STAT6) for 10 min. Cells were then spun down and washed with ice-cold PBS prior to lysing the cell pellet with 1× lysis buffer (CST) with 1×HALT protease and phosphatase inhibitor cocktail (Thermo). Lysates were transferred to and incubated overnight at 4° C. with shaking in QuickPlex 96-well high bind assay plates (MSD) pre-coated overnight with 30 μL per well of 0.6 μg/mL mouse monoclonal anti-STAT3 antibody (STAT3) or 2 μg/mL mouse monoclonal anti-STAT6 antibody (STAT6) in 1×PBS, and pre-blocked for 1 hour with 3% Blocker-A (MSD). Captured protein in the assay plates were then washed and probed with 25 μL per well of 0.25 μg/ml rabbit monoclonal anti-pY705-STAT3 antibody (STAT3) or […] rabbit monoclonal Anti-pY641-STAT6 antibody (STAT6) in 1% Blocker-A for 1 hour at room temperature with shaking, then washed and probed with 25 ul per well of 1 ug/ml Sulfo-TAG Labeled Goat Anti-Rabbit Antibody (MSD) in 1% Blocker-A for 1 hour at room temperature with shaking. Assay plates were then washed and 150 μL of 1× Read Buffer-T (MSD) was added to each well prior to reading on an SQ120 MSD Plate Reader. Assay signal from each sample was subtracted by the signal from unstimulated control wells and normalized to DMSO control wells. IC50 values were calculated using Graph Pad Prism Dose-Response Nonlinear Regression with variable slope. For both pSTAT3 and pSTAT6 A=≤100 nM; B=>100-1000 nM; C=>1000-3000 nM; and D=>3 μM.

Experiment [2] has as its target T1, Recombinant STAT3 protein (STAT3(G127-I722)) (Homo sapiens, UniProt P40763).
T1 construct: Recombinant STAT3 protein (STAT3(G127-I722))
The experiment in a line: STAT3 Fluorescence Polarization (FP) Assay. The format is binding. The note with it: STAT3(G127-I722) 25 nM, probe 5-FAM-GpYLPQTV-NH2 2 nM, 45-minute incubation. A digest of the protocol: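 STAT3(G127-I722), 25 nM, was mixed with 2 nM 5-FAM-GpYLPQTV-NH2 probe in HEPES pH 7.4 buffer with 1% DMSO and serially diluted compound. FP (mP) was read after 45 min at room temperature. IC50 came from nonlinear regression.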
(In general: In fluorescence polarisation assays a small probe gives low polarisation when free and higher when bound to something large.)

Experiment [3] has as its target T2, Recombinant STAT6 protein (STAT6(W123-T658)) (Homo sapiens, UniProt P42226).
T2 construct: Recombinant STAT6 protein (STAT6(W123-T658))
T2 sequence (P42226 123-658): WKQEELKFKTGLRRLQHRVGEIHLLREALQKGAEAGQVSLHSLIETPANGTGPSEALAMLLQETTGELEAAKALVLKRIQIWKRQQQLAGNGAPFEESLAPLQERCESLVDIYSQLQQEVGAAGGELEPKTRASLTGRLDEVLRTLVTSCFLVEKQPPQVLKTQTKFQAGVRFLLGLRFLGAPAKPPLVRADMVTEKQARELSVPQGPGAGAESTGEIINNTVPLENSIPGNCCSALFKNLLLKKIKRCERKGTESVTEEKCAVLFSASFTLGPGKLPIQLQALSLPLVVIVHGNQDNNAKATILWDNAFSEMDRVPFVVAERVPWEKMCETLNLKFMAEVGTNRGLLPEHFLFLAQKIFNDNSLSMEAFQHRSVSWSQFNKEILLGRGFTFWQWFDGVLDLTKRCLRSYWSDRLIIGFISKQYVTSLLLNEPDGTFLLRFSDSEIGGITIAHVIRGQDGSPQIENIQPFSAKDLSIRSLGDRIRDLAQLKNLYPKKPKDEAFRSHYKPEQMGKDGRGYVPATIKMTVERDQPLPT
The experiment in a line: STAT6 Fluorescence Polarization (FP) Assay. The format is binding. Conditions: STAT6(W123-T658) 250 nM, probe 5-FAM-ApYKPFQDLI-NH2 2 nM, 45-minute incubation. In short, it runs like this:
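Displacement of a fluorescent phosphotyrosine peptide (5-FAM-ApYKPFQDLI-NH2, 2 nM) from STAT6(W123-T658) (250 nM), 1% DMSO, pH 7.4 HEPES buffer. After 45 min at room temperature, polarization (mP) was plotted versus log compound concentration and fitted by nonlinear regression to give IC50.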

T1 sequence (P40763 127-722): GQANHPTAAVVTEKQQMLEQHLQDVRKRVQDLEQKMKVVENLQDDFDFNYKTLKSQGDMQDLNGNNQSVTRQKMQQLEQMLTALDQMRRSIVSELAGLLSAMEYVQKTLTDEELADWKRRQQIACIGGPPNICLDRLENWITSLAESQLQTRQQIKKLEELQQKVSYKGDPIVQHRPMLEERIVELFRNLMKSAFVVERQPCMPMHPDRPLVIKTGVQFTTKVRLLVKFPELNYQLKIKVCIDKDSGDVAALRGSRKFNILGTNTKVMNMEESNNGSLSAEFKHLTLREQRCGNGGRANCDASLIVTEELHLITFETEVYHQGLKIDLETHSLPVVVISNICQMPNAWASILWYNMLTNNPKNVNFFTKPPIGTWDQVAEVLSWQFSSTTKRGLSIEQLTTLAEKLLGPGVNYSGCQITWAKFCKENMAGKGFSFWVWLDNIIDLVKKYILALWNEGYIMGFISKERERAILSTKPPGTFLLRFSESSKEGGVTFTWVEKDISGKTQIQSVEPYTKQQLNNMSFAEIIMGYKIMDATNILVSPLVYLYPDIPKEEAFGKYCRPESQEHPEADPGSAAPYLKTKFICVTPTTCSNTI

Usually IC50 stands for the concentration at which inhibition is half-maximal. In turn, `CC(=O)N1CC[C@H]2CC[C@@H](C(=O)N3C[C@H](c4cc[nH]c(=O)c4)[C@@H](C#N)C3)N2C(=O)[C@@H](NC(=O)c2ccc3ccc(C(F)(F)P(=O)(OCCSC(=O)CC(C)C)OCOC(=O)OC(C)C)cc3c2)C1` (single isomer, unassigned) [Compound 302, S-(2-((((7-(((5S,8S, 10aR)-3-acetyl-8-((3R,4S or 3S,4R)-3-cyano-4-(2-oxo-1,2-dihydro-pyridin-4-yl)pyrrolidine-1-carbonyl)-6-oxodecahydro-pyrrolo[1,2-a][1,5]diazocin-5-yl)carbamoyl)naphthalen-2-yl)difluoro-methyl)(((iso-propoxy-carbonyl)oxy)methoxy)phos-phoryl)oxy)ethyl)3-methylbutane-thioate] returned an IC50 in experiment [1] of 100 to 1000 nM.
Consider `Cc1ccc2onc(C(=O)N3CC[C@H]4CC[C@@H](C(=O)N5C[C@@H](C#N)[C@H](c6ccccc6)C5)N4C(=O)[C@@H](NC(=O)c4ccc5ccc(C(F)(F)P(=O)(OCCSC(=O)CC(C)C)OCCSC(=O)CC(C)C)cc5c4)C3)c2c1` (single isomer, unassigned) [Compound 433], for which, in experiment [1], the IC50 was ≤ 100 nM.
For `N#Cc1cccc(C2CN(C(=O)[C@@H]3CC[C@@H]4CCN(Cc5ncccn5)C[C@H](NC(=O)c5cc6cc(C(F)P(=O)(O)O)ccc6s5)C(=O)N43)C2)n1` (stereo partly drawn) [Compound 398, ((2-(((5S,8S,10aR)-8-(3-(6-cyanopyridin-2-yl)azetidine-1-carbonyl)-6-oxo-3-(pyrimidin-2-ylmethyl)decahydropyrrolo[1,2-a][1,5]diazocin-5-yl)carbamoyl)benzo[b]thiophen-5-yl)fluoromethyl)phosphonic acid], the IC50 was ≤ 100 nM in experiment [2] and 3000 to 30000 nM in experiment [3].
For `N#Cc1cccc(C2CN(C(=O)[C@@H]3CC[C@@H]4CCN(Cc5ncccn5)C[C@H](NC(=O)c5cc6cc(CP(=O)(O)O)ccc6s5)C(=O)N43)C2)n1` [Compound 399, ((2-(((5S,8S,10aR)-8-(3-(6-cyanopyridin-2-yl)azetidine-1-carbonyl)-6-oxo-3-(pyrimidin-2-ylmethyl)decahydro-pyrrolo[1,2-a][1,5]diazocin-5-yl)carbamoyl)benzo[b]thiophen-5-yl)methyl) phosphonic acid], the IC50 in experiment [2] was 100 to 1000 nM; in experiment [3] it was > 30000 nM.
Consider `CC(=O)N1C[C@H](NC(=O)[C@@H]2CC[C@@H]3CCN(Cc4ncccn4)C[C@H](NC(=O)c4cc5cc(C(F)P(=O)(O)O)ccc5s4)C(=O)N32)[C@@H](F)C1` (stereo partly drawn) [Compound 400, ((2-(((5S,8S,10aR)-8-(((3S,4S)-1-acetyl-4-fluoropyrrolidin-3-yl)carbamoyl)-6-oxo-3-(pyrimidin-2-ylmethyl)decahydropyrrolo[1,2-a][1,5]diazocin-5-yl)carbamoyl)benzo[b]thiophen-5-yl)fluoromethyl)phosphonic acid], for which the IC50 in experiment [2] lay within 100 to 1000 nM; in experiment [3] it was 3000 to 30000 nM.
Consider `O=C(N[C@H]1CN(C(=O)NCC23CCN(CC2)CC3)CC[C@H]2CC[C@@H](C(=O)N3CC(c4cccnc4)C3)N2C1=O)c1cc2cc(C(F)(F)P(=O)(O)O)ccc2s1` [Compound 401, (difluoro(2-(((5S,8S, 10aR)-6-oxo-8-(3-(pyridin-3-yl)azetidine-1-carbonyl)-3-((quinuclidin-4-ylmethyl)carbamoyl)decahydropyrrolo [1,2-a][1,5]diazocin-5-yl)carbamoyl)benzo[b]thiophen-5-yl)methyl) phosphonic acid], for which the figures for the IC50 in experiment [2] and in experiment [3] were ≤ 100 nM and 3000 to 30000 nM, respectively.
The matching figures for `O=C(N[C@H]1CN(Cc2ccccc2-n2cncn2)CC[C@H]2CC[C@@H](C(=O)N3CC(c4cccnc4)C3)N2C1=O)c1cc2cc(C(F)(F)P(=O)(O)O)ccc2s1` [Compound 402, ((2-(((5S,8S,10aR)-3-(2-(1H-1,2,4-triazol-1-yl)benzyl)-6-oxo-8-(3-(pyridin-3-yl)azetidine-1-carbonyl)decahydro-pyrrolo[1,2-a][1,5]diazocin-5-yl)carbamoyl)benzo[b]thiophen-5-yl)difluoromethyl) phosphonic acid]: ≤ 100 nM and 3000 to 30000 nM.
With `CN1CCN(c2ccc(C(=O)N3CC[C@H]4CC[C@@H](C(=O)N5CC(c6cccnc6)C5)N4C(=O)[C@@H](NC(=O)c4cc5cc(C(F)(F)P(=O)(O)O)ccc5s4)C3)c(Cl)c2)CC1` [Compound 403, ((2-(((5S,8S,10aR)-3-(2-chloro-4-(4-methylpiperazin-1-yl)benzoyl)-6-oxo-8-(3-(pyridin-3-yl)azetidine-1-carbonyl)decahydropyrrolo[1,2-a][1,5]diazocin-5-yl)carbamoyl)benzo[b]thiophen-5-yl)difluoromethyl) phophonic acid], the IC50 in experiment [2] was ≤ 100 nM; in experiment [3], 3000 to 30000 nM.
For `O=C(N[C@H]1CS(=O)(=O)CC[C@H]2CC[C@@H](C(=O)N3CC(c4cccnc4)C3)N2C1=O)c1cc2cc(C(F)(F)P(=O)(O)O)ccc2s1` [Compound 404, ((2-(((5R,8S,10aR)-3,3-dioxido-6-oxo-8-(3-(pyridin-3-yl)azetidine-1-carbonyl)octahydro-4H-pyrrolo[2,1-d][1,5]thiazocin-5-yl)carbamoyl)benzo[b]thiophen-5-yl)difluoromethyl) phosphonic acid], the IC50 in experiment [2] was ≤ 100 nM; in experiment [3], 3000 to 30000 nM.
The matching figures for `O=C(N[C@H]1CSCC[C@H]2CC[C@@H](C(=O)N3CC(c4cccnc4)C3)N2C1=O)c1cc2cc(C(F)(F)P(=O)(O)O)ccc2s1` [Compound 405, (difluoro(2-(((5R,8S, 10aR)-6-oxo-8-(3-(pyridin-3-yl)azetidine-1-carbonyl)octahydro-4H-pyrrolo[2,1-d][1,5]thiazocin-5-yl)carbamoyl)benzo[b]thiophen-5-yl)methyl) phosphonic acid]: ≤ 100 nM and 3000 to 30000 nM.
The matching figures for “((2-(((5S,8S,10aR)-3-acetyl-8-((rel-trans)-3-cyano-3-methyl-4-phenylpyrrolidine-1-carbonyl)-6-oxodecahydropyrrolo[1,2-a][1,5]diazocin-5-yl)carbamoyl)benzo[b]thiophen-5-yl)difluoromethyl)phosphonic acid [Compound 41]”: 1000 to 10000 nM and ≤ 300 nM.
The matching figures for “((2-(((5S,8S,10aR)-8-((3S,4R or 3R,4S)-3-cyano-4-phenylpyrrolidine-1-carbonyl)-3-(2,2-difluoroethyl)-6-oxodecahydropyrrolo[1,2-a][1,5]diazocin-5-yl)carbamoyl)benzo[b]thiophen-5-yl)difluoromethyl)phosphonic acid [Compound 249]”: 100 to 1000 nM and ≤ 300 nM.
